pIC50: −log10 of the molar value. Where two headings read alike, the source gives them in different places.
Target: T1, human NLRP3 (Homo sapiens, UniProt Q96P20)
T1 construct: Human whole blood is drawn from healthy volunteers after obtaining written informed consent; from tissue; host or cells: human whole blood from healthy volunteers (heparin lithium tubes)
Experiment: Human whole blood (hWB) NLRP3 assay (IL-1β release after LPS priming and ATP activation)
Format: cell-based
Conditions: for pIC50: human whole blood; for hWB NLRP3 inhibitory activity compared to the (S)-isomer: isomer comparison, in words; for fold improvement in activity compared to Compound 3 (hWB IL-1β IC50): additional ring N atom versus Compound 3 with lactam ring N as sole N ring atom, Table E
Method: Human Whole Blood (hWB) NLRP3 Assay
Human whole blood is drawn from healthy volunteers after obtaining written informed consent. Heparin lithium coated tubes are used to collect blood from volunteers. Blood samples are distributed on 96 well plates using 90 μl per well.
Priming procedure: Priming is performed by adding 5 μl of LPS (026:B6; Sigma L-2654) at a final concentration of 1 μg/ml for 4.5 hours in a humidified incubator with 37° C., 5% CO2. Thirty minutes prior to NLRP3 activation, 5 μl of a 20× compound solution or vehicle (2% dimethylsulfoxide (DMSO)) is added to each well and plates were incubated on a shaker (450 rpm) in a humidified incubator with 37° C., 5% CO2.
Alternative priming procedure: Thirty minutes prior to LPS priming, 5 μl of a 20× compound solution or vehicle (2% dimethylsulfoxide (DMSO)) is added to each well and plates were incubated on a shaker (450 rpm) in a humidified incubator with 37° C., 5% CO2. Priming is performed by adding 5 μl of LPS (026:B6; Sigma L-2654) at a final concentration of 1 μg/ml for 5 hours in a humidified incubator with 37° C., 5% CO2.
Activation is then performed by adding 3.3 μl of a 31×ATP solution per well. At the end of the 30 minutes stimulation, the plates are centrifuged (800 g, 10 min, room temperature) and the plasma from each well is frozen at −80° C. […] levels in the supernatant were analyzed using a mesoscale discovery assay (MSD K151TUK) according to the manufacturers' instructions.
There is no detectable difference in assay IC50 results using the priming procedure versus the alternative priming procedure.
Data provided in Table C, below. hWB […] Assay: A represents an IC50 value <0.3 μM; B represents an IC50 value ≥0.3 μM and <0.5 μM; C represents an IC50 value ≥0.5 μM and <1.0 μM; D represents an IC50 value ≥1.0 μM and <10 μM; E represents an IC50 value ≥10 μM. Dashed (--) lines indicate no data available.

[1] = LPS 1 μg/ml priming, ATP activation, Table C, class symbols, read-out: hWB IL-1β IC50
[2] = numeric values of Tables D and E, read-out: hWB IL-1β IC50

T1 sequence (Q96P20 whole entry): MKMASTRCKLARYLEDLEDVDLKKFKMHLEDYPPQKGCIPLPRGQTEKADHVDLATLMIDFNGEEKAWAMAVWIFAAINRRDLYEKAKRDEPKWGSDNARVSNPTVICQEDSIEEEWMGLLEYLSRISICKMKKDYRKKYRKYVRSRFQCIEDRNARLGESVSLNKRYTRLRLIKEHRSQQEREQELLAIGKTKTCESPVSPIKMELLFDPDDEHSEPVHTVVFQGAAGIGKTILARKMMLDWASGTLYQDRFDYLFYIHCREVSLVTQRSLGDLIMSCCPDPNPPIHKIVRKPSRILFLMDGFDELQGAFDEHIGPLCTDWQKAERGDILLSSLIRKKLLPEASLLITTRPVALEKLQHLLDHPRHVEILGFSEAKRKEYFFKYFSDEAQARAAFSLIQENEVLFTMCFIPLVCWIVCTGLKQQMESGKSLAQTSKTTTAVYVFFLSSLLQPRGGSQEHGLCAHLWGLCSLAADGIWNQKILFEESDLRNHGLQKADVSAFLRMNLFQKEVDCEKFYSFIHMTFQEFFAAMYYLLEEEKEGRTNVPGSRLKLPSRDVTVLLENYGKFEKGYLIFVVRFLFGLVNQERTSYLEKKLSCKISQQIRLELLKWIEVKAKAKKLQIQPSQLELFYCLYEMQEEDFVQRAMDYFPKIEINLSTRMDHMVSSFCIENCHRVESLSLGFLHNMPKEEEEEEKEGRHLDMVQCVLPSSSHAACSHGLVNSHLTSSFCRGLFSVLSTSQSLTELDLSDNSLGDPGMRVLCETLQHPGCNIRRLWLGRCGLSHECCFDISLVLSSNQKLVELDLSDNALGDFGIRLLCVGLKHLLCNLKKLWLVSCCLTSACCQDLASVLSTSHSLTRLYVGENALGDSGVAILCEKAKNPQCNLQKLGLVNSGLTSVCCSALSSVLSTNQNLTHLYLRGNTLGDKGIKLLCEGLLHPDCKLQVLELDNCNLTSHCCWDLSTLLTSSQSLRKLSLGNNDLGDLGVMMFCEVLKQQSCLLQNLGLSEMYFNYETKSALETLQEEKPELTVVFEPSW

SMILES | pIC50 [1] | other results
CC1(C)C(=O)N([C@H]2CC(C)(C)N(CCCC(=O)O)C2=O)c2c(F)cc(C3CC3)c(F)c21 (single isomer, unassigned) [Compound 25B] | ≤ 5.00 | –
C[C@H](CCC(=O)O)N1CC[C@@H](N2C(=O)C(C)(C)c3c(F)c(C4CC4)cc(F)c32)C1=O (single isomer, unassigned) [Compound 24D*] | 5.00 to 6.00 | –
CC1(C)C(=O)N(c2nccn([C@H]3CCC[C@@H]3CC(=O)O)c2=O)c2c(F)cc(C3CC3)c(F)c21 (single isomer, unassigned) [Compound 20C*] | 6.00 to 6.30 | –
CC1(C)C(=O)N(c2cc3ccccc3n(CCCC(=O)O)c2=O)c2c(F)cc(C3CC3)c(F)c21 [Compound 9, 4-(3-(5-cyclopropyl-4,7-difluoro-3,3-dimethyl-2-oxoindolin-1-yl)-2-oxoquinolin-1(2H)-yl)butanoic acid] | 5.00 to 6.00 | –
CC1(C)C(=O)N(c2cccn(CCCC(=O)O)c2=O)c2c(O)cc(Cl)cc21 [Compound 7, 4-(3-(5-chloro-7-hydroxy-3,3-dimethyl-2-oxoindolin-1-yl)-2-oxopyridin-1(2H)-yl)butanoic acid] | 5.00 to 6.00 | –
CC1(C)C(=O)N([C@@H]2CCN(CCCC(=O)O)C2=O)c2c(F)cc(C(F)(F)F)c(F)c21 (stereo in doubt) [Compound 19A*, (R)-4-(3-(4,7-difluoro-3,3-dimethyl-2-oxo-5-(trifluoromethyl)indolin-1-yl)-2-oxopyrrolidin-1-yl)butanoic acid] | > 6.52 | hWB NLRP3 inhibitory activity compared to the (S)-isomer: more active isomer
CC1(C)C(=O)N(c2cncn(CCCC(=O)O)c2=O)c2c(F)cc(C3CC3)c(F)c21 [Compound 8, 4-(5-(5-cyclopropyl-4,7-difluoro-3,3-dimethyl-2-oxoindolin-1-yl)-6-oxopyrimidin-1(6H)-yl)butanoic acid] | 6.30 to 6.52 | fold improvement in activity compared to Compound 3 (hWB IL-1β IC50): 3-5 fold; pIC50 [2]: 6.33
CC1(C)C(=O)N(c2cc(C(F)(F)F)cn(CCCC(=O)O)c2=O)c2c(F)cc(C3CC3)c(F)c21 [Compound 12, 4-(3-(5-cyclopropyl-4,7-difluoro-3,3-dimethyl-2-oxoindolin-1-yl)-2-oxo-5-(trifluoromethyl)pyridin-1(2H)-yl)butanoic acid] | 5.00 to 6.00 | –
CC1(C)C(=O)N(c2cc(-c3ccccc3)cn(CCCC(=O)O)c2=O)c2c(F)cc(C3CC3)c(F)c21 [Compound 13, 4-(3-(5-cyclopropyl-4,7-difluoro-3,3-dimethyl-2-oxoindolin-1-yl)-2-oxo-5-phenylpyridin-1(2H)-yl)butanoic acid] | ≤ 5.00 | –
CC1(C)C(=O)N(c2nccn(CCCC(=O)O)c2=O)c2c(F)cc(C3CC3)c(F)c21 [Compound 10, 4-(3-(5-cyclopropyl-4,7-difluoro-3,3-dimethyl-2-oxoindolin-1-yl)-2-oxopyrazin-1(2H)-yl)butanoic acid] | 6.30 to 6.52 | fold improvement in activity compared to Compound 3 (hWB IL-1β IC50): 3-5 fold; pIC50 [2]: 6.41
CC1(C)C(=O)N(c2cccn(CCCC(=O)O)c2=O)c2c(F)cc(Br)cc21 [Compound 1, 4-(3-(5-bromo-7-fluoro-3,3-dimethyl-2-oxoindolin-1-yl)-2-oxopyridin-1(2H)-yl)butanoic acid] | 5.00 to 6.00 | –
CC1(C)C(=O)N([C@H]2CCN(CCCC(=O)O)C2=O)c2c(F)cc(C3CC3)c(F)c21 [Compound 16B, (S)-4-(3-(5-cyclopropyl-4,7-difluoro-3,3-dimethyl-2-oxoindolin-1-yl)-2-oxopyrrolidin-1-yl)butanoic acid] | 5.00 to 6.00 | –
CC1(C)C(=O)N(c2cc(C3CC3)cn(CCCC(=O)O)c2=O)c2c(F)cc(C3CC3)c(F)c21 [Compound 14, 4-(5-cyclopropyl-3-(5-cyclopropyl-4,7-difluoro-3,3-dimethyl-2-oxoindolin-1-yl)-2-oxopyridin-1(2H)-yl)butanoic acid] | 5.00 to 6.00 | –
CC1(C)C(=O)N([C@@H]2CC(C)(C)N(CCCC(=O)O)C2=O)c2c(F)cc(C3CC3)c(F)c21 (single isomer, unassigned) [Compound 25A] | ≤ 5.00 | –
Cc1ccc(N2C(=O)C(C)(C)c3c(F)c(C4CC4)cc(F)c32)c(=O)n1CCCC(=O)O [Compound 6, 4-(3-(5-cyclopropyl-4,7-difluoro-3,3-dimethyl-2-oxoindolin-1-yl)-6-methyl-2-oxopyridin-1(2H)-yl)butanoic acid] | 5.00 to 6.00 | –
CC1(C)C(=O)N(c2c(=O)n(CCCC(=O)O)cc3ccccc23)c2c(F)cc(C3CC3)c(F)c21 [Compound 15, 4-(4-(5-cyclopropyl-4,7-difluoro-3,3-dimethyl-2-oxoindolin-1-yl)-3-oxoisoquinolin-2(3H)-yl)butanoic acid] | ≤ 5.00 | –
CC1(C)C(=O)N(c2nccn(CCCC(=O)O)c2=O)c2ccc(C3CC3)c(F)c21 [Compound 21, 4-(3-(5-cyclopropyl-4-fluoro-3,3-dimethyl-2-oxoindolin-1-yl)-2-oxopyrazin-1(2H)-yl)butanoic acid] | 5.00 to 6.00 | –
CC1(C)C(=O)N([C@H]2CCN(CCCC(=O)O)C2=O)c2ccc(C3CC3)c(F)c21 (stereo in doubt) [Compound 18B*, (S)-4-(3-(5-cyclopropyl-4-fluoro-3,3-dimethyl-2-oxoindolin-1-yl)-2-oxopyrrolidin-1-yl)butanoic acid] | ≤ 5.00 | pIC50 (class symbol printed beside the numeric value in Tables D and E, read-out: hWB IL-1β IC50 activity class): ≤ 5.00; pIC50 [2]: < 3.30
CC1(C)C(=O)N(c2ccnn(CCCC(=O)O)c2=O)c2c(F)cc(C3CC3)c(F)c21 [Compound 11, 4-(5-(5-cyclopropyl-4,7-difluoro-3,3-dimethyl-2-oxoindolin-1-yl)-6-oxopyridazin-1(6H)-yl)butanoic acid] | 6.00 to 6.30 | fold improvement in activity compared to Compound 3 (hWB IL-1β IC50): 3-5 fold; pIC50 [2]: 6.21
CC1(C)C(=O)N([C@@H]2CCN(CCCC(=O)O)C2=O)c2c(F)cc(C3CC3)cc21 (stereo in doubt) [Compound 22A*, (R)-4-(3-(5-cyclopropyl-7-fluoro-3,3-dimethyl-2-oxoindolin-1-yl)-2-oxopyrrolidin-1-yl)butanoic acid] | > 6.52 | hWB NLRP3 inhibitory activity compared to the (S)-isomer: more active isomer
CC1(C)C(=O)N([C@@H]2CCN(CCCC(=O)O)C2=O)c2c(F)cc(C3CC3)c(F)c21 [Compound 16A, (R)-4-(3-(5-cyclopropyl-4,7-difluoro-3,3-dimethyl-2-oxoindolin-1-yl)-2-oxopyrrolidin-1-yl)butanoic acid] | > 6.52 | –
C[C@@H](CCC(=O)O)N1CC[C@@H](N2C(=O)C(C)(C)c3c(F)c(C4CC4)cc(F)c32)C1=O (single isomer, unassigned) [Compound 24A*] | 6.30 to 6.52 | –
Cc1cc(N2C(=O)C(C)(C)c3c(F)c(C4CC4)cc(F)c32)c(=O)n(CCCC(=O)O)c1 [Compound 5, 4-(3-(5-cyclopropyl-4,7-difluoro-3,3-dimethyl-2-oxoindolin-1-yl)-5-methyl-2-oxopyridin-1(2H)-yl)butanoic acid] | 5.00 to 6.00 | –
CC1(C)C(=O)N(c2cccn(CCCC(=O)O)c2=O)c2c(F)cc(C3CC3)c(F)c21 [Compound 3, 4-(3-(5-cyclopropyl-4,7-difluoro-3,3-dimethyl-2-oxoindolin-1-yl)-2-oxopyridin-1(2H)-yl)butanoic acid] | 5.00 to 6.00 | pIC50 [2]: 5.72
Cc1ccn(CCCC(=O)O)c(=O)c1N1C(=O)C(C)(C)c2c(F)c(C3CC3)cc(F)c21 (single isomer, unassigned) [Compound 4A*, (Sa)-4-(3-(5-cyclopropyl-4,7-difluoro-3,3-dimethyl-2-oxoindolin-1-yl)-4-methyl-2-oxopyridin-1(2H)-yl)butanoic acid] | ≤ 5.00 | –
C[C@@H](CC(=O)O)CN1CC[C@@H](N2C(=O)C(C)(C)c3c(F)c(C4CC4)cc(F)c32)C1=O (single isomer, unassigned) [Compound 26A*] | 6.30 to 6.52 | –
C[C@H](CC(=O)O)CN1CC[C@H](N2C(=O)C(C)(C)c3c(F)c(C4CC4)cc(F)c32)C1=O (single isomer, unassigned) [Compound 26D*] | ≤ 5.00 | –
CC1(C)C(=O)N(c2cccn(CCCC(=O)O)c2=O)c2c(F)cc(C3CC3)cc21 [Compound 2, 4-(3-(5-cyclopropyl-7-fluoro-3,3-dimethyl-2-oxoindolin-1-yl)-2-oxopyridin-1(2H)-yl)butanoic acid] | 5.00 to 6.00 | –
CC1(C)C(=O)N(c2nccn([C@@H]3CCC[C@H]3CC(=O)O)c2=O)c2c(F)cc(C3CC3)c(F)c21 (single isomer, unassigned) [Compound 20D*] | 6.00 to 6.30 | –

Source: patent US20260285831A1, “LACTAM DERIVATIVES FOR INHIBITING NLRP3 AND USES THEREOF” (Ventus Therapeutics U.S., Inc., priority 2023, published 2026)
